Test: Photophysical properties of cyanine dyes in dimethyl sulfoxide (DU 800 spectrophotometer)
Assay type: physicochemical
Settings: for Excitation (nm): absorption
Source text: The photophysical properties of a variety of cyanine dyes in dimethyl sulfoxide has been measured by the DU 800 spectrophotometer.

SMILES	Emission (nm)	Extinction Coefficient	Excitation (nm)
COCCOCCOCCOCC[N+]1=C(/C=C/C=C/C=C2/N(CCOCCOCCOCCN)c3ccccc3C2(C)C)C(C)(C)c2ccccc21 [A2]	667	1.63 × 10^5	649
COCCOCCOCCOCC[N+]1=C(/C=C/C=C/C=C2\Sc3ccccc3N2CCOCCOCCOCCC(=O)O)C(C)(C)c2ccccc21 [G1]	685	7.65 × 10^4	661
COCCOCCOCCOCC[N+]1=C(/C=C/C=C/C=C2\N(CCOCCOCCOCCOCCC(=O)NCCC(=O)N3Cc4ccccc4C#Cc4ccccc43)c3ccccc3C2(C)C)C(C)(C)c2ccccc21 [D4]	667	6.42 × 10^4	649
CC1(C)C(/C=C/C=C/C=C2\N(CCOCCOCCOCCOCCC(=O)NCCN3C(=O)C=CC3=O)c3ccccc3C2(C)C)=[N+](CCOCCOCCOCCN=[N+]=[N-])c2ccccc21 [D3]	667	6.94 × 10^4	649
CC1(C)C(/C=C/C2=C(Cl)C(=C/C=C3/N(CCOCCOCCOCCN=[N+]=[N-])c4ccccc4C3(C)C)/CCC2)=[N+](CCOCCOCCOCCN=[N+]=[N-])c2ccccc21 [F1]	817	1.16 × 10^5	785
COCCOCCOCCOCC[n+]1c(/C=C/C=C/C=C2\Sc3ccccc3N2CCOCCOCCOCCC(=O)O)sc2ccccc21 [E1]	682	7.11 × 10^4	661
C#CCOCCOCCOCCOCCOc1ccc2c(c1)C(C)(C)\C(=C/C=C\C=C/C1=[N+](C)c3ccc(OCCOCCOCCOCCOC)cc3C1(C)C)N2C [B1]	699	6.12 × 10^4	649
COCCOCCOCCOCCN1/C(=C/C=C/C=C/C2=[N+](CCOCCOCCOCCN=[N+]=[N-])c3ccccc3C2(C)C)Sc2ccccc21 [G2]	671	4.23 × 10^4	652
O=C(O)CCOCCOCCOCCN1\C(=C/C=C\C=C\c2sc3ccccc3[n+]2CCOCCOCCOCCC(=O)O)Sc2ccccc21 [E2]	682	7.31 × 10^4	661
